Measurements as given in patent US6335356B1, “Method of treating a patient by parenteral administration of a lipophilic compound” (Sugen, Inc., priority 1994, dated 2002).
In brackets after ≈: the same amount, converted by molar mass.

Columns and labels:
[1] = Solubility of leflunomide in vehicles (POLYSORBATE 80:alcohol ratios, alcohol, VPD/PBTE); format: physicochemical
Description: (§1) Leflunomide has a low solubility in standard formulations used to dissolve compounds for parenteral administration. For example, the solubility of leflunomide in VPD (126 mg alcohol, 40 mg POLYSORBATE 80®, 3 mg citric acid, 15 mg benzyl alcohol, and 325 mg PEG MW300; also referred to as PBTE) is about 60 mg/ml. Parenterally administered VPD formulations should be diluted at least 1:2 with a pharmaceutically acceptable aqueous solution to avoid toxic effects. Such dilution can result in precipitation of lipophilic compounds. For leflunomide, a concentration in VPD greater than about 5 mg/ml precipitates when diluted 1:2 with a pharmaceutically aqueous solution such as WFI.
Increasing the solubility of leflunomide allows more leflunomide to be administered to a patient via parenteral administration. The formulations described by the present invention can use alcohol and a surfactant to solubilize leflunomide. Leflunomide is soluble in alcohol at 100 mg/ml. The surfactant is added to allow for the dilution into a pharmaceutically acceptable aqueous solution prior to injection.
Leflunomide was solubilized in varying ratios of POLYSORBATE 80® and alcohol. The leflunomide solutions were then tested for the ability to dilute with aqueous solutions.
As noted above, the stability of leflunomide in solution is pH dependent. To stabilize leflunomide varying amounts of citric acid (1 to 20 mg/ml) were added to both 33%T:66%E and 66%T:33%E. The citric acid decreased the apparent pH of the solutions.

[2] = Ability of leflunomide solutions to be diluted with aqueous solutions; format: physicochemical; conditions: for Solubility: organic solvent or mixture, read-out: concentration soluble and allowing dilution with aqueous solutions
Description: as §1, with “WFI. Leflunomide was solubilized in varying ratios of POLYSORBATE 80® and alcohol. The leflunomide solutions were then tested for the ability to dilute with aqueous solutions.” for “WFI.”

[3] = format: physicochemical
From the text: The pH of the formulations can be adjusted with a pharmaceutically acceptable excipient. For example, the apparent pH of the POLYSORBATE 80®:alcohol formulations can be adjusted with citric acid.

[4] = Physical stability (precipitation) of leflunomide solutions over time; format: physicochemical

solubility after addition of citric acid ([1]; 33%:66%E with citric acid 1 to 20 mg/ml): no longer soluble to the same extent
Solubility ([1]; VPD (PBTE) parenteral vehicle, organic solvent or mixture, VPD (126 mg alcohol, 40 mg POLYSORBATE 80, 3 mg citric acid, 15 mg benzyl alcohol, 325 mg PEG MW300; also PBTE), read-out: solubility in VPD): ~60 mg/mL
Solubility ([1]; alcohol, organic solvent or mixture, read-out: soluble in alcohol at): 100 mg/mL
Solubility ([1]; vehicle 33%T:66%E (POLYSORBATE 80:alcohol v/v), 100 mg/ml): Insoluble
Solubility ([1]; vehicle 33%T:66%E, 25 mg/ml): Soluble
Solubility ([1]; vehicle 33%T:66%E, 50 mg/ml): Soluble
Solubility ([1]; vehicle 50%T:50%E, 50 mg/ml): Soluble
Solubility ([1]; vehicle 50%T:50%E, 55 mg/ml): Soluble
Solubility ([1]; vehicle 50%T:50%E, 60 mg/ml): Soluble
Solubility ([1]; vehicle 50%T:50%E, 75 mg/ml): Soluble
Solubility ([1]; vehicle 50%T:50%E, 100 mg/ml): Soluble
Solubility ([1]; vehicle 66%T:33%E, 50 mg/ml): Soluble
Solubility ([1]; vehicle 66%T:33%E, 100 mg/ml): Insoluble
Solubility ([1]; vehicle PBTE6C:WFI, 2.5 mg/ml): Soluble
Solubility ([1]; vehicle alcohol, 100 mg/ml): Soluble
Solubility ([2]; POLYSORBATE 80:alcohol vehicle 33%T:66%E, in 33%T:66%E): 25 mg/mL (≈ 92.5 mM)
Solubility ([2]; POLYSORBATE 80:alcohol vehicle 66%T:33%E, in 66%T:33%E): 50 mg/mL (≈ 185 mM)
concentration in VPD that precipitates when diluted 1:2 ([2]; VPD diluted 1:2 with pharmaceutically aqueous solution such as WFI): greater than 5 mg/ml
remaining in solution ([4]; 20 mg/ml in 33%T:66%E with citric acid, 2-8° C. for 7 days): precipitate started to occur
remaining in solution ([4]; 20 mg/ml in 33%T:66%E with either 4 or 6 mg/ml citric acid, 4° C.): remains in solution
remaining in solution ([4]; 20 mg/ml in 33%T:66%E with either 4 or 6 mg/ml citric acid, room temperature): remains in solution
remaining in solution with time ([4]; 25 mg/ml in 33%T:66%E, diluted with aqueous solutions, room temperature (22° C. to 26° C.), over 3 days): falls out of solution
SMILES: Cc1oncc1C(=O)Nc1ccc(C(F)(F)F)cc1 [Leflunomide, 5-methylisoxazole-4 carboxylic acid-(4-trifluromethyl)-anilide]
stability in solution [3]: breakdown to N-(4-trifluoromethylphenyl)-2-cyano-3-hydroxycrotonamide
